According to patent US20220241311A1, “METHODS AND MATERIALS FOR TREATING GLYCOSYLATION DISORDERS” (priority 2018, published 2022):

System: PGM1-defective patient fibroblasts
Test: Nucleotide sugar analysis (UPLC-PDA), patient fibroblasts
Format: cell-based, human
Experimental: Levels of nucleotides and sugar-nucleotides were determined. Fibroblast cell pellets (5×10^6 cells per sample) were lysed and extracted in 0.37 ml ice-cold 0.5 M perchloric acid with sonication on ice. Samples were neutralized with 86 μl ice-cold neutralization solution (2.5 M KOH in 1.5 M K2HPO4) after 5 minute sonication. To remove precipitated potassium perchlorate neutralized samples were centrifuged at 4° C. and 16,400×g for 10 minutes and filtered with 0.2 μm filters. Nucleotides and sugar-nucleotides were immediately analyzed and separated via ion-pair reverse phased chromatography using an Acquity HSS T3 column (150 mm×2.1 mm, 1.7 μm, Waters) connected to an Acquity H-class UPLC system. The column temperature was set to 40° C. and the column was equilibrated with solvent A (50 mM potassium phosphate buffer, 8 mM tetrabutylammonium hydrogensulfate, pH 6.5) at a flow rate of 0.45 ml min^−1. Autosampler temperature was maintained at 6° C. […] Nucleotides were detected by Acquity PDA detector (Waters, 260 nm) and quantified using ultrapure standards (Sigma). Data acquisition and processing was performed with the Empower3 software suite (Waters).
Nucleotide sugars were measured with serum starvation during 18 hours of culturing and without of serum starvation and applying normal media.

[1] = Patient 8, 1 d + 0.75 mM Galactose
[2] = Patient 8, 4 d + 0.75 mM Galactose
[3] = listed as 'i e' (patient cell-line 2013Y), 1 d 2 mM Galactose
[4] = listed as 'i e' (patient cell-line 2013Y), 1 d + 0.75 mM Galactose
[5] = listed as 'i e' (patient cell-line 2013Y), 4 d 2 mM Galactose
[6] = listed as 'i e' (patient cell-line 2013Y), 4 d + 0.75 mM Galactose

## O=C[C@H](O)[C@@H](O)[C@@H](O)[C@H](O)CO [D-gal, D-galactose]
Patient 8, 1 d 2 mM Galactose
  ADP: 510.69 pmol/mio cells
  AMP: 15.28 pmol/mio cells
  ATP: 2089.09 pmol/mio cells
  CTP: 274.92 pmol/mio cells
  GDP: 213.67 pmol/mio cells
  GDP-Man: 29.66 pmol/mio cells
  GTP: 434.86 pmol/mio cells
  UDP: 153.67 pmol/mio cells
  UDP-Gal: 398.68 pmol/mio cells
  UDP-Glc: 613.75 pmol/mio cells
  UDP-GlcNAc: 31.04 pmol/mio cells
  UTP: 1183.32 pmol/mio cells
  cAMP: 75.29 pmol/mio cells
[1]
  ADP: 429.27 pmol/mio cells
  AMP: 7.31 pmol/mio cells
  ATP: 1855.71 pmol/mio cells
  CTP: 222.68 pmol/mio cells
  GDP: 188.04 pmol/mio cells
  GDP-Man: 31.71 pmol/mio cells
  GTP: 387.39 pmol/mio cells
  UDP: 120.53 pmol/mio cells
  UDP-Gal: 273.66 pmol/mio cells
  UDP-Glc: 445.76 pmol/mio cells
  UDP-GlcNAc: 40.27 pmol/mio cells
  UTP: 1037.93 pmol/mio cells
  cAMP: 72.84 pmol/mio cells
Patient 8, 4 d 2 mM Galactose
  ADP: 695.56 pmol/mio cells
  AMP: 22.78 pmol/mio cells
  ATP: 3192.45 pmol/mio cells
  CTP: 282.74 pmol/mio cells
  GDP: 260.45 pmol/mio cells
  GDP-Man: 95.43 pmol/mio cells
  GTP: 659.21 pmol/mio cells
  UDP: 169.63 pmol/mio cells
  UDP-Gal: 315.21 pmol/mio cells
  UDP-Glc: 493.54 pmol/mio cells
  UDP-GlcNAc: 56.13 pmol/mio cells
  UTP: 1293.27 pmol/mio cells
  cAMP: 88.40 pmol/mio cells
[2]
  ADP: 655.53 pmol/mio cells
  AMP: 18.87 pmol/mio cells
  ATP: 3363.84 pmol/mio cells
  CTP: 274.92 pmol/mio cells
  GDP: 277.54 pmol/mio cells
  GDP-Man: 101.37 pmol/mio cells
  GTP: 682.40 pmol/mio cells
  UDP: 174.89 pmol/mio cells
  UDP-Gal: 283.69 pmol/mio cells
  UDP-Glc: 442.43 pmol/mio cells
  UDP-GlcNAc: 6.33 pmol/mio cells
  UTP: 1364.91 pmol/mio cells
  cAMP: 74.47 pmol/mio cells
All patient cell lines, 4 days of D-gal supplementation
  UDP-Glc and UDP-Gal levels: remained significantly increased
[3]
  ADP: 318.92 pmol/mio cells
  AMP: 2.63 pmol/mio cells
  ATP: 2918.66 pmol/mio cells
  CTP: 295.58 pmol/mio cells
  GDP: 186.06 pmol/mio cells
  GDP-Man: 56.30 pmol/mio cells
  GTP: 566.56 pmol/mio cells
  UDP: 42.70 pmol/mio cells
  UDP-Gal: 503.56 pmol/mio cells
  UDP-Glc: 637.55 pmol/mio cells
  UDP-GlcNAc: 211.57 pmol/mio cells
  UTP: 981.09 pmol/mio cells
  cAMP: 70.73 pmol/mio cells
[4]
  ADP: 407.13 pmol/mio cells
  AMP: 8.23 pmol/mio cells
  ATP: 3422.01 pmol/mio cells
  CTP: 339.16 pmol/mio cells
  GDP: 187.52 pmol/mio cells
  GDP-Man: 107.59 pmol/mio cells
  GTP: 681.74 pmol/mio cells
  UDP: 115.84 pmol/mio cells
  UDP-Gal: 431.17 pmol/mio cells
  UDP-Glc: 703.36 pmol/mio cells
  UDP-GlcNAc: 21.89 pmol/mio cells
  UTP: 1494.83 pmol/mio cells
  cAMP: 91.16 pmol/mio cells
[5]
  ADP: 382.44 pmol/mio cells
  AMP: 16.17 pmol/mio cells
  ATP: 3460.76 pmol/mio cells
  CTP: 241.06 pmol/mio cells
  GDP: 242.68 pmol/mio cells
  GDP-Man: 147.29 pmol/mio cells
  GTP: 681.71 pmol/mio cells
  UDP: 43.26 pmol/mio cells
  UDP-Gal: 394.31 pmol/mio cells
  UDP-Glc: 616.89 pmol/mio cells
  UTP: 1316.26 pmol/mio cells
  cAMP: 98.61 pmol/mio cells
[6]
  ADP: 349.53 pmol/mio cells
  AMP: 3.85 pmol/mio cells
  ATP: 3484.52 pmol/mio cells
  CTP: 280.34 pmol/mio cells
  GDP: 225.14 pmol/mio cells
  GDP-Man: 151.18 pmol/mio cells
  GTP: 686.35 pmol/mio cells
  UDP: 39.53 pmol/mio cells
  UDP-Gal: 290.54 pmol/mio cells
  UDP-Glc: 487.94 pmol/mio cells
  UDP-GlcNAc: 354.84 pmol/mio cells
  UTP: 944.20 pmol/mio cells
  cAMP: 68.63 pmol/mio cells
